Test results reported in paper PMC10987521, “An all-in-one tetrazine reagent for cysteine-selective labeling and bioorthogonal activable prodrug construction” (Nature Communications, 2024).

Columns and labels:
B16F10 cells [1] = assay: Cell uptake by fluorescence imaging, B16F10; type: cell-based, Mouse; settings: B16F10 and LX2 cells, 10 μM, 2 h
Description: (§1) B16F10 cells were cultured for 48 h. […]
(§2) 12.1 Calculation of the fluorescence coefficient (F c)
(§3) The Fc was the radio calculated
(§4) 12.2 Uptake calculation of the B16F10 cells […]
(§5) deviation were analyzed using Origin Pro 2015.
(§6) B16F10 cells, characterized by α vβ3
(§7) Following the incubation period, the
Subsequently, the cells were trypsinized and underwent three PBS rinses.
12 .4 Cell uptake analysis by fluorescence imaging

[2] = system: B16F10, U87, SKOV3 and LX2 cells; assay: Cytotoxicity (CCK8, 48 h), figures stated across several cell lines; type: cell-based; settings: read-out: IC50 values against all four cell lines
[3] = Body weight and organ histology in the B16F10 tumor model; type: in vivo, BALB/c nude mice
Description: (§8) The mice underwent four treatment courses on day 0, day 3, day 6, and day 9. Tumor size and body weight were measured every day. Tumor volume was calculated via the following formula: V = 1/2 × (minor axis) × (major axis)[2].
(§9) After 12 days, the mice were sacrificed and dissected to obtain tumor tissues and main organs, including heart, liver, spleen, lung, and kidney. Subsequently, all tissues were fixed in a 4% paraformaldehyde solution, routinely paraffin-embedded and sectioned, and then stained with hematoxylin and eosin, as well as using TdT-mediated dUTP nick-end labeling (TUNEL) for subsequent pathological analysis. TUNEL-positive cells appeared fluorescent green, representing the apoptosis of tumor cells (nuclei were fluorescent blue, stained with DAPI).

SKOV3 cells = assay: Cytotoxicity (CCK8, 48 h) of drugs, PDCs, activable-Drugs and TCO, SKOV3; type: cell-based, Human; settings: Homo sapiens, SK-OV-3; SKOV3, 48 h, CCK8, n = 3; activable-Dox: RGD-Dox 2 h, then 200 μM TCO, 48 h in total
U87 cells = assay: Cytotoxicity (CCK8, 48 h) of drugs, PDCs, activable-Drugs and TCO, U87; type: cell-based, Human; settings: Homo sapiens, U-87 MG; U87, 48 h, CCK8, n = 3; activable-Dox: RGD-Dox 2 h, then 200 μM TCO, 48 h in total
B16F10 cells [4] = assay: Cytotoxicity (CCK8, 48 h) of drugs, PDCs, activable-Drugs and TCO, B16F10; type: cell-based, Mouse; settings: Mus musculus, B16-F10; B16F10, 48 h, CCK8, n = 3; activable-Dox: RGD-Dox 2 h, then 200 μM TCO, 48 h in total
B16F10 cells [5] = assay: Comparison of cell uptake between RGD-Dox and Dox using flow cytometry; type: cell-based, Mouse
Description: as §1, §2, §3, §4, §5, §6, §7
Subsequently, the cells were trypsinized and underwent three PBS rinses. […]

B16F10 melanoma tumor = assay: In vivo anticancer efficacy, subcutaneous B16F10 melanoma tumor model; design: species or system BALB/c nude mice
Description: Tumor-bearing mice were established by subcutaneously injecting a suspension of 5 × 10^5 B16F10 cells per mouse into the front flank of each nude mouse. When tumor volume reached 50−70 mm^3, the animals were randomly divided into five groups (n = 5). The mice were administered different compounds suspended in PBS via the tail vein every 3 days for a total of four times.
as §8, §9
13. In vivo anticancer efficacy […]
13.2 Calculation of the tumor growth inhibition values (TGI)
Tumor growth inhibition values (TGI) were calculated using the following formula: TGI (%) = (1 − RTVtreatment/
RTVcontrol)*100. RTV refers to relative tumor volume, representing the ratio of the volume at the end of treatment to the
volume at the beginning of treatment. […]

LX2 cells = assay: Cytotoxicity (CCK8, 48 h) of drugs, PDCs, activable-Drugs and TCO, LX2; type: cell-based, Human; settings: Homo sapiens, LX-2; LX2 (αvβ3-negative), 48 h, CCK8, n = 3; activable-Dox: RGD-Dox 2 h, then 200 μM TCO
[6] = Labeling reaction kinetics between tetrazine 1 and Cys; type: physicochemical; settings: 25 °C, PB (30% MeCN, 20 mM, pH 8.0), equal concentrations, UV-Vis 300 nm
Description: The second-order rate constant for the labeling reactions between tetrazine 1 and Cys was determined at 25 °C in PB (30% MeCN, 20 mM, pH 8.0) under second-order conditions using a 6000+ (Quawell) UV-Vis spectrophotometer. The concentrations of cysteine and tetrazine were identical. The specific difference in absorption wavelength (300 nm) between 1 and Cys-1 was measured over time. The second-order rate constant k2 was calculated from the slope of a plot of (1/c – 1/c0) versus time.
5. Competitive labeling reaction with other nucleophilic amino acids
For the competitive labeling experiment, 10 equiv. (2 mM) of N-Fmoc-Lys, N-Fmoc-Arg, Ser, Tyr, and 1.3 equiv. […] The resulting solution was maintained at 25 °C and monitored by LC –MS. […]
Each voTz analogue (1.1 equiv.) was added to a 0.25 mL vial containing solvent. […] The chromatogram peak areas of all relevant Cys -containing species were integrated, and the yiel d was determined using the following equation: Yield (%) = Iproduct/(Istarting + Iproduct + Ioxidation + Iside product) × 100, where Istarting, Iproduct, Ioxidation, and Iside product respectively represent the average ion counts of remaining starting material, product, oxidized starting material and any side product, if present 2. […]
DLS analyses and particle zeta potential values were determined using a Nano ZS ZEN 3690 instrument (Malvern […]

SMILES	cellular uptake of free drug (imaging) (B16F10 cells [1])	IC50 [2] [µM]	histology of heart, liver, spleen, lung, kidney ([3]; after 12 days)	body weight in words ([3]; four i.v. courses, 3.67 μmol·kg^−1, compared with PBS group)	IC50 (SKOV3 cells) [µM]	IC50 (U87 cells) [µM]	IC50 (B16F10 cells [4]) [nM]	Normalized uptake (B16F10 cells [5]; normalized to Dox = 1, Data 1)	Normalized uptake (B16F10 cells [5]; normalized to Dox = 1, Data 2)	Normalized uptake (B16F10 cells [5]; normalized to Dox = 1, Data 3)	tumor growth inhibition values (TGI %) (B16F10 melanoma tumor; Data 5) [%]	tumor growth inhibition value (TGI) (B16F10 melanoma tumor; after four i.v. courses (days 0, 3, 6, 9), 3.67 μmol·kg^−1, n = 5, TGI = (1 − RTVtreatment/RTVcontrol)*100) [%]	tumor growth / inhibition in words (B16F10 melanoma tumor; four i.v. courses, 3.67 μmol·kg^−1 (TCO-P4 36.7 μmol·kg^−1), n = 5)	IC50 (LX2 cells) [µM]	second-order rate constant of the labeling reaction between 1 and Cys [6] [M⁻¹ s⁻¹]
COc1cccc2c1C(=O)c1c(O)c3c(c(O)c1C2=O)C[C@@](O)(C(=O)CO)C[C@@H]3O[C@H]1C[C@H](N)[C@H](O)[C@H](C)O1 [Dox, doxorubicin]	obvious uptake through nonspecific diffusion and internalization	2.05 to 4.45	typical inflammatory injury	serious loss of body weight	4.45	3.26	2050	1	1	1	46.63	59.4	slightly slowed the tumor growth	3.37	
C=Cc1nnc(-c2ccccc2)nn1 [compound 1, phenyl vinyltetrazine]															13 ± 0.8
